Assay [1] has as its system A2780 cells. To be noted: cited from earlier work.
In assay [2] the test system is A2780cis cells. To be noted: cited from earlier work; for Resistance factor: A2780cis vs A2780.
Assay [3] relates to 212 bp NdeI–HpaI fragment of pSP73KB DNA. The following applies: in the dark, cited from earlier work.
Assay [4] has as its system A2780cis cells. The experiment in a line: Constant challenge proliferation (MTT) assay, A2780cis. It is filed as cell-based, human. The following applies: conventional constant challenge proliferation assay. An excerpt:
(§1) It should be noted that the phototoxicity assay is not a proliferation assay.

Assay [5] concerns calf thymus DNA. To be noted: in the dark; cited from earlier work.
For assay [6], the target named is T1, HMGB1 protein (Homo sapiens, UniProt P09429).
T1 sequence (P09429 1-215): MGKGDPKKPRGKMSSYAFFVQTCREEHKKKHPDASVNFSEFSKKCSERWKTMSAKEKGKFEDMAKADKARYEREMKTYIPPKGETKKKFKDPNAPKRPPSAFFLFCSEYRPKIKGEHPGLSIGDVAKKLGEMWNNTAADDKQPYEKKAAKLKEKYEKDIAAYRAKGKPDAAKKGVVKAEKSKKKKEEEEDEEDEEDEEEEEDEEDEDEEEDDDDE
The experiment in a line: HMGB1 recognition of platinated 50 bp duplex, gel mobility shift assay. The class given is binding. The following applies: 50 bp duplex modified in the dark. An excerpt: HMGB1 protein recognition: The interactions of high mobility group protein B1 (HMGB1) with a 50 bp duplex DNA adducts formed by 1 or 2 under irradiation conditions and 5 or 6 in the dark were investigated using a gel mobility shift assay.
Figure 13 Recognition by HMGB1 protein of platinated DNA. Affinity of full-length HMGB1 to non-modified (control) DNA (lanes 1 and 2) or DNA modified by cisplatin (7) in the dark (lanes 3 and 4), 5 in the dark (lanes 5 and 6), 6 in the dark (lanes 7 and 8), photoactivated 1 (420 nm light, lanes 9 and 10) or photoactivated 2 (420 nm light, lanes 11 and 12). Lanes 1, 3, 5, 7, 9, 11, no protein added; lanes 2, 4, 6, 8, 10, 12, 700 ng HMGB1 added.

Assay [7] concerns calf thymus DNA. The following applies: in the dark; ref 32b; cited from earlier work.
Another assay concerns DNA. Set-up: method as in PMID 1827334. To be noted: ref 3a; cited from earlier work.
Assay [8] deals with A2780 cells. The experiment in a line: SRB proliferation assay for non-light-sensitive complexes, A2780. It is filed as cell-based, human. The following applies: ambient light, 24 h exposure, 72 h recovery. How it is done:
(§2) Cytotoxicity of platinum(II) precursors: To investigate the relationship between the Pt^IV diazidodihydroxido complexes and their Pt^II dichlorido analogues trans-[PtCl2(Am1)(Am2)] (where Am=amine), the cytotoxicities of complexes trans-[PtCl2(MA)(Py)] (5) and trans-[PtCl2(MA)(Tz)] (6) towards A2780 and its cisplatin resistant sub-line A2780cis were determined. The toxicity was not photoinduced, as the complexes are not photoactive. Complexes 5 and 6 are highly cytotoxic towards A2780 and A2780cis cells compared to the reported trans-Pt^II compounds.[18]–[22] Complex 5 is about three-times more cytotoxic than complex 6 towards A2780 cells. […]
(§3) Cell Culture and Proliferation Assay for Non-light-sensitive Complexes
(§4) The A2780 ovarian cell line was obtained from the ECACC (European Collection of Animal Cell Culture, Salisbury, United Kingdom). The cells were maintained in RPMI 1640 media, which was supplemented with 10% foetal calf serum, 1% L-glutamine, and 1% penicillin/streptomycin. All cells were grown at 310 K in an humidified atmosphere containing 5% CO2. Stock solutions of the Pt complexes were freshly prepared in DMSO to assist dissolution and then diluted into saline and medium (maximum final concentration of DMSO 1% and saline 6%). After plating 5000 A2780 cells per well on day 1, Pt complexes were added to the cancer cells on day 3 at concentrations ranging from 0.01 to 100 µM, depending on the preliminary activity data obtained in screening assays. Cells were exposed to the complexes for 24 h, washed with PBS, supplied with fresh medium, and allowed to grow for three doubling times (72 h), and then the protein content (proportional to cell survival) was measured using the sulforhodamine B (SRB) assay.[7] The standard errors are based on two independent experiments of three replicates each.[8]
A general note: In SRB staining, fixed cells bind dye roughly in proportion to their protein.

A further assay concerns pUC19 plasmid DNA. To be noted: in the dark; cited from earlier work.
The subject of assay [9] is A2780 cells. The experiment in a line: Constant challenge proliferation (MTT) assay, A2780. The class given is cell-based, human. To be noted: conventional constant challenge proliferation assay.
Description: as §1

Assay [10] deals with A2780cis cells. The experiment in a line: SRB proliferation assay for non-light-sensitive complexes, A2780cis. It is filed as cell-based, human. As for the experimental part: as §2, §3, §4
Details of assay [11]: method as in earlier work. The following applies: 310 K; cited from earlier work.
Another assay concerns pSP73KB plasmid DNA. The following applies: in the dark; ref 32b; cited from earlier work.
The subject of assay [12] is 212 bp NdeI–HpaI fragment of pSP73KB DNA. Nature of the assay: Transcription mapping of DNA adducts (T7 RNA polymerase). To be noted: in the dark; rb=0.01. The class given is biochemical. As for the experimental part: Sequence preference of DNA adducts: Transcription mapping experiments were performed to determine the DNA binding sites for Pt complexes. The experiments were carried out using a linear 212 bp DNA fragment (sequence in Figure 9 B), randomly modified by transplatin (8), cisplatin (7), 5 or 6 in the dark or by 1 and 2 photoactivated with blue light (420 nm) at rb=0.01 (rb is defined as the number of the molecules of platinum complex coordinated per nucleotide residue), for RNA synthesis by T7 RNA polymerase (Figure 9 A, lanes 8, 7, 5, 6, 1 and 2, respectively). RNA synthesis on the template modified by the platinum complexes produced fragments of defined sizes (Figure 9 A), which indicate the sites where RNA synthesis was prematurely terminated. It should be noted that RNA synthesis by T7 RNA polymerase is prematurely terminated only due to the platinum adducts on the template strand.[23] […] The ability to bind to A and C sites is consistent with the result from AMP and CMP binding experiments (Figure S18 in the Supporting Information).
Figure 9 Inhibition of RNA synthesis by T7 RNA polymerase on the NdeI–HpaI fragment of pSP73KB plasmid DNA modified by complexes 5 or 6, cisplatin (7) or transplatin (8) in the dark, or with photoactivated 1 or 2 (420 nm light). A) Autoradiogram of a polyacrylamide (6 %)/urea (8 M) sequencing gel. […]
assayed by differential pulse polarography for free, unbound platinum.[16] The amount of platinum bound to DNA was calculated by subtracting the amount of free (unbound) platinum from the total amount of platinum present in the reaction. […]
This fragment contained T7 RNA polymerase promoter (in the upper strand close to its 3'-end). […] The fragments produced in RNA synthesis on the template modified by the platinum complexes were analysed by a 6% polyacrylamide/8M urea sequencing gel.
Quantification of DNA adducts […]
Platinum associated with DNA was assessed by flameless atomic absorption […]
Quantification of DNA interstrand cross-links […]

In assay [13] the target is T1, HMGB1 protein. The following applies: in the dark; footnote a: taken from literature; cited from earlier work.

The source of these data is article PMC4280898, “Diazido Mixed-Amine Platinum(IV) Anticancer Complexes Activatable by Visible-Light Form Novel DNA Adducts” (Chemistry (Weinheim an Der Bergstrasse, Germany), 2013).

In general, IC50 refers to the concentration at which inhibition is half-maximal.

Read-outs that look alike come from different tables or passages of the source. Some results are limits rather than exact numbers.

Take `CC(C)[NH2+][Pt-2]([Cl])([Cl])[n+]1ccn(C)c1`: the concentration for half-maximal inhibition (IC50) in the assay on A2780 cells [1] was 21 ± 0.6 µM. Further, in the assay with A2780cis cells [2], the Resistance factor was 0.66 and the IC50 was 14 ± 3.5 µM.
Take `N.N.[Cl][Pt][Cl]` [Complex 7, cis-[PtCl2(NH3)2]]: the Sequence specificity result in assay [3] (ref 30c, 37) was “GG, (GA)[30c], [37]”. Further, the half-inhibitory concentration (IC50) with A2780cis cells [4] amounted to 11 µM; with A2780 cells [8], 1.5 ± 0.3 µM; with A2780 cells [9] it was 0.5 µM; with A2780cis cells [10] (ambient light, 24 h exposure, 72 h recovery, SRB), 10.5 ± 0.3 µM. Further, in the assay with calf thymus DNA [5], the “Pt bound after 24 h” value was 100[36] %. Further, the HMGB1 protein recognition result on HMGB1 protein [6] is listed as “strongly bound by HMGB1”. Further, the “Bifunctional adducts after 24 h” value with calf thymus DNA [7] was 97–99[32b] %. The “d(ApG) 1,2-intrastrand cross-links, share of all adducts” value with DNA is 20–25%. Moreover, the “d(GpG) 1,2-intrastrand cross-links, share of all adducts” value with DNA was 60–65%. Also, in the assay on pUC19 plasmid DNA, the Unwinding angle was 13[25] °. Besides, the Resistance factor in the assay on A2780cis cells [10] (A2780cis vs A2780, SRB assay) is 7.0. In addition, the “Time for binding to 5′-GMP to reach 50 %” value in assay [11] was 7 to 8 h. Further, in the assay with pSP73KB plasmid DNA, the Interstrand cross-link is 6[32b] %.
For the molecule `N.N.[Cl][Pt+2][Cl]` [Complex 8, transplatin], the Sequence specificity entry is “G, C[32b]” in assay [3] (ref 32b); “stop sites mainly at G and C” in assay [12]. For the same molecule, the “Pt bound after 24 h” value with calf thymus DNA [5] is 100[36] %. Besides, the “Bifunctional adducts after 24 h” value in the assay on calf thymus DNA [7] was 50[32b] %. The HMGB1 protein recognition entry on HMGB1 protein [13] was “no ^[a]”. Also, the 50% inhibitory concentration (IC50) with A2780 cells [1] is more than 200 µM. For the same molecule, the Unwinding angle with pUC19 plasmid DNA was 9[25] °. Besides, the Interstrand cross-link in the assay on pSP73KB plasmid DNA was 12[32b] %.
For the molecule `CCC(C)C[NH][Pt]([Cl])[Cl].N` (stereo not drawn) [trans-[PtCl2(NH3)(2-methyl-butylamine)]], the IC50 in the assay with A2780 cells [1] was 1.7 µM. In the assay on A2780cis cells [2], the Resistance factor is recorded as 5.5 and the concentration for half-maximal inhibition (IC50) was 9.3 µM.
`Cc1cc[n+]([Pt@SP2-2]([NH3+])([Cl])[Cl])cc1` [trans-[PtCl2(NH3)(4-picoline)]]: the half-inhibitory concentration (IC50) in the assay with A2780 cells [1] is 7 ± 1 µM; in the assay on A2780cis cells [2], 80 ± 5 µM. Besides, the Resistance factor with A2780cis cells [2] is recorded as 11.
For `COC(C)=N.N.[Cl][Pt][Cl]` [trans-[PtCl2(NH3)(HN=C(OCH3)CH3)]], in the assay on A2780 cells [1], the IC50 was 1.3 ± 0.3 µM. Besides, in the assay on A2780cis cells [2], the Resistance factor was 5.4 and the concentration for half-maximal inhibition (IC50) is 7 ± 1.3 µM.
As for `C1CNCCN1.N.[Cl][Pt][Cl]` [trans-[PtCl2(NH3)(piperazine)]], the half-inhibitory concentration (IC50) in the assay with A2780 cells [1] was 5 ± 1 µM. In the assay on A2780cis cells [2], the Resistance factor is listed as 8.8 and the half-maximal inhibitory concentration (IC50) is 44 ± 2 µM.
Turning to `C1CCNCC1.N.[Cl][Pt][Cl]` [trans-[PtCl2(NH3)(piperidine)]], the IC50 in the assay with A2780 cells [1] was 5 ± 0.7 µM. In addition, in the assay on A2780cis cells [2], the Resistance factor was 4.0 and the IC50 was 20 ± 2 µM.
As for `CCC(C)N.N.[Cl][Pt][Cl]` (stereo not drawn) [trans-[PtCl2(NH3)(sec-butylamine)]], the 50% inhibitory concentration (IC50) is 2.1 µM with A2780 cells [1] and 15.5 µM with A2780cis cells [2]. Besides, the Resistance factor with A2780cis cells [2] is on record as 7.4.
